In US6468976B1 (AstraZeneca AB, priority 2001, dated 2002):

What was measured:
[1] = crystal size by SEM; type: physicochemical
Text: In contrast, the crystals of monohydrate form 2 are much smaller, and in a narrower size range, than those of monohydrate form 1, typically 5 μm or less in edge length.

[2] = stability / hygroscopicity on standing at ambient conditions; type: physicochemical; conditions: for hygroscopicity / stability at room temperature and humidity: standard room temperature and humidity; for stability under ambient conditions: thermogravimetric analysis after 5 hours standing at ambient conditions
Procedure: The partially dehydrated material was allowed to stand for about 5 hours.

[3] = cited from earlier work

NCCCC[C@H](N[C@@H](CCc1ccccc1)C(=O)O)C(=O)N1CCC[C@H]1C(=O)O [monohydrate lisinopril form 2, 1-(N^2-[(S)-1-carboxy-3-phenylpropyl]-L-lysyl)-L-proline]
crystal size (length / edge length) ([1]; listed as monohydrate form 2): ≤ 5 μm

NCCCC[C@H](N[C@@H](CCc1ccccc1)C(=O)O)C(=O)N1CCC[C@H]1C(=O)O.O [Preparation 3]
hygroscopicity / stability at room temperature and humidity [2]: strongly hygroscopic
stability under ambient conditions [2]: regained the lost weight and to have become a dihydrate

NCCCC[C@H](N[C@@H](CCc1ccccc1)C(=O)O)C(=O)N1CCC[C@H]1C(=O)O [monohydrate lisinopril form 1, 1-(N^2-[(S)-1-carboxy-3-phenylpropyl]-L-lysyl)-L-proline]
hygroscopicity / stability at room temperature and humidity [2]: stable at a standard room temperature and humidity
stability under ambient conditions [2]: stable under ambient conditions
crystal size (length / edge length) ([1]; listed as monohydrate form 1): 50 to 500 μm

NCCCC[C@H](N[C@@H](CCc1ccccc1)C(=O)O)C(=O)N1CCC[C@H]1C(=O)O [lisinopril, 1-(N^2-[(S)-1-carboxy-3-phenylpropyl]-L-lysyl)-L-proline]
time to peak serum concentrations ([3]; following oral administration): ≤ 7 h
effective half-life of accumulation ([3]; on multiple dosing): about 12.6 hours
